PubChem BioAssay (NCI)
“And” between values parts separate entries of the source, which are not always exact repeats. Equal values may be shown once.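 Growth conditions: 96-well plates. Treatment: test compound, 48 hours, 5 concentrations. Analysis: linear interpolation between bracketing concentrations; unreached endpoints set to highest concentration. At the GI50, growth is halved. TGI: concentration producing complete growth inhibition.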

Legend:
Test in all cases: DTP human tumour cell line panel, 48 h
OVCAR-8 ovarian = tested on: OVCAR-8 ovarian
HOP-62 NSCLC = tested on: HOP-62 NSCLC
SF-539 CNS = tested on: SF-539 CNS
M14 melanoma = tested on: M14 melanoma
UACC-62 melanoma = tested on: UACC-62 melanoma
COLO 205 colon = tested on: COLO 205 colon
786-0 renal = tested on: 786-0 renal
CAKI-1 renal = tested on: CAKI-1 renal
UACC-257 melanoma = tested on: UACC-257 melanoma
MCF7 breast = tested on: MCF7 breast

Row | SMILES | TGI (OVCAR-8 ovarian) | TGI (HOP-62 NSCLC) | TGI (SF-539 CNS) | TGI (M14 melanoma) | TGI (UACC-62 melanoma) | TGI (COLO 205 colon) | TGI (786-0 renal) | TGI (CAKI-1 renal) | TGI (UACC-257 melanoma) | TGI (MCF7 breast) | GI50 (COLO 205 colon) | GI50 (UACC-257 melanoma) | GI50 (OVCAR-8 ovarian) | GI50 (HOP-62 NSCLC) | GI50 (SF-539 CNS) | GI50 (M14 melanoma) | GI50 (UACC-62 melanoma) | GI50 (786-0 renal) | GI50 (CAKI-1 renal)
1 | Cc1cc(C)c(-c2noc(-c3ccc(Cl)cc3)c2C2=NCCCN2)c(C)c1 | > 100 µM | 85.8 µM | 30.5 µM | 6.11 µM | 40.7 µM | 35.1 µM | 26.5 µM | > 100 µM | 40.6 µM | – | – | – | – | – | – | – | – | – | –
2 | Clc1cccc(-c2nnc(-c3nn(-c4ccccc4)c4nc5ccccc5nc34)o2)c1 | > 100 µM | > 100 µM | > 100 µM | > 100 µM | > 100 µM | > 100 µM | > 100 µM | > 100 µM | > 100 µM | – | – | – | – | – | – | – | – | – | –
3 | O=c1c(Cl)c(Cl)cnn1CCCl | 10.9 µM | 34.5 µM | 29.5 µM | 11.3 µM | 8.25 µM | 7.69 µM | 25.3 µM | 6.53 µM | 6.58 µM | – | – | – | – | – | – | – | – | – | –
4 | O=C(Nc1ccc(Cl)cc1Cl)OC(Cn1cncn1)c1ccc(Cl)cc1Cl (stereo not drawn) | 31.8 µM | 34.5 µM | 32.5 µM | 32.1 µM | 28.1 µM | 31.5 µM | 33.5 µM | – | 30.9 µM | – | – | – | – | – | – | – | – | – | –
5 | COc1c(-c2ccccc2)nc2ccc(Oc3ccccc3)nn12 | > 100 µM | > 100 µM | > 100 µM | > 100 µM | > 100 µM | > 65 µM | > 100 µM | > 100 µM | > 96.5 µM | – | – | – | – | – | – | – | – | – | –
6 | O=C(/C=C\c1cccc2ccccc12)c1ccc(Cl)cc1Cl | 37.3 µM | > 100 µM | 53.2 µM | 41.3 µM | 34 µM | 45.5 µM | 33.1 µM | > 100 µM | 75.3 µM | – | – | – | – | – | – | – | – | – | –
7 | O=C1/C(=C/c2ccc(Cl)cc2)CNC/C1=C\c1ccc(Cl)cc1 | – | 12.5 µM and 7.03 µM | 3.2 µM and 4.11 µM | 8.7 µM | > 19.9 µM | 4.25 µM and 8.35 µM | 4.69 µM and 2.77 µM | 5.98 µM and 3.82 µM | – | 21.2 µM | 2.61 µM | 1.78 µM and 7.7 µM | – | – | – | – | – | – | –
8 | CC1(C)CCCC(C)(C2CCC3(C)C2C(O)CC2C4(C)CCC(O)C(C)(C)C4CCC23C)O1 (stereo not drawn) | > 100 µM | – | > 100 µM | > 100 µM | > 100 µM | > 100 µM | > 100 µM | > 100 µM | > 100 µM | > 100 µM | – | – | – | – | – | – | – | – | –
9 | CC1CCC2CC(=O)OC([C@@H]3C(=O)O[C@@H](C4=CCCC4)C4C(C)CCC43)C12 (stereo partly drawn) | > 100 µM | > 100 µM | > 100 µM | > 100 µM | > 100 µM | > 100 µM | > 100 µM | > 100 µM | > 100 µM | – | – | – | – | – | – | – | – | – | –
10 | COc1ccc(S(=O)(=O)N(CC(=O)O)c2ccccc2)cc1 | > 100 µM | – | > 100 µM | > 100 µM | > 100 µM | > 100 µM | > 100 µM | > 100 µM | > 100 µM | – | – | – | – | – | – | – | – | – | –
11 | Nc1c(Cl)ncnc1NCCCCCCCCCCCCNc1ncnc(Cl)c1N | > 100 µM | 6.82 µM | 30.3 µM | 57.3 µM | 13.6 µM | 21.9 µM | 66.1 µM | – | 4.21 µM | – | – | – | – | – | – | – | – | – | –
12 | O=C(Nc1ccc(Cl)c(Cl)c1)C(=O)C(C(=O)c1ccccc1-c1ccccc1)C1OC(=O)c2ccccc21 (stereo not drawn) | 84.5 µM | 27.4 µM | 27.9 µM | 30.1 µM | 41.2 µM | 30.2 µM | 25.6 µM | – | > 100 µM | – | – | – | – | – | – | – | – | – | –
13 | COC(=O)[C@@H]1Cc2c([nH]c3ccccc23)[C@H](c2ccccc2)N1 | > 100 µM | – | 67.3 µM | 79.6 µM | > 100 µM | 38.6 µM | > 100 µM | > 100 µM | > 100 µM | – | – | – | – | – | – | – | – | – | –
14 | CN(/N=C/c1ccnc2ccccc12)c1c([N+](=O)[O-])cc([N+](=O)[O-])cc1[N+](=O)[O-] | > 100 µM | > 100 µM | > 100 µM | > 100 µM | > 100 µM | > 100 µM | > 100 µM | > 100 µM | > 100 µM | – | – | – | – | – | – | – | – | – | –
15 | Oc1c(Cl)cc(Cl)c2ccc(Cn3cc(-c4ccc(C(F)(F)F)cc4)nn3)nc12 | 11.5 µM | 35.2 µM | 2.94 µM | 5.26 µM | 11.9 µM | 3.14 µM | 4.59 µM | 2.97 µM | 3.3 µM | – | 1.39 µM | 1.23 µM | 2.75 µM | 16.4 µM | 1.52 µM | 1.93 µM | 2.61 µM | 1.82 µM | 1.25 µM
16 | COc1ccc(OC)c(/C=N/N=C(\N)NO)c1 | > 100 µM | > 100 µM | > 100 µM | 89.4 µM | 26.9 µM | 66.2 µM | > 100 µM | 71.4 µM | > 100 µM | – | – | – | – | – | – | – | – | – | –
17 | CN(/N=C\c1ccnc2ccccc12)c1ccc([N+](=O)[O-])cc1 | > 100 µM | > 100 µM | > 100 µM | > 100 µM | > 100 µM | > 100 µM | > 100 µM | > 100 µM | > 100 µM | – | – | – | – | – | – | – | – | – | –
18 | COC(=O)[C@@]12CC(C(C)C)[C@H]3CC(C(=O)C=C1OC)[C@H]32 (stereo partly drawn) | > 100 µM | > 100 µM | > 100 µM | > 100 µM | > 100 µM | > 100 µM | > 100 µM | > 100 µM | > 100 µM | – | – | – | – | – | – | – | – | – | –
19 | COC(=O)C1=CC2C=CC(C1C(=O)OC)C1C(C(=O)OC)=C(C(=O)OC)C(C(=O)OC)=C(C(=O)OC)C21OC (stereo not drawn) | > 100 µM | > 100 µM | > 100 µM | > 100 µM | > 100 µM | > 100 µM | > 100 µM | > 100 µM | > 100 µM | – | – | – | – | – | – | – | – | – | –
20 | N/N=C(/Cc1nc2ccc(C(=O)c3ccccc3)cc2[nH]c1=O)C(=O)Nc1ccc([N+](=O)[O-])cc1[N+](=O)[O-] | > 100 µM | – | > 100 µM | > 100 µM | > 100 µM | > 100 µM | > 100 µM | > 100 µM | > 100 µM | – | > 100 µM | – | – | – | – | > 100 µM | – | – | –
21 | CC(=O)[C@H]1CCC2[C@@H]3CC=C4C[C@@H]([O-])CC[C@]4(C)C3CC[C@@]21C.CC(=O)[C@H]1CCC2[C@@H]3CC=C4C[C@@H]([O-])CC[C@]4(C)C3CC[C@@]21C.CC(=O)[CH-]C(=O)c1ccccc1.CC(=O)[CH-]C(=O)c1ccccc1.Cl.[Ti+4] (stereo partly drawn) | 79.2 µM | 67.6 µM | – | 46.1 µM | 56.9 µM | > 100 µM | 17.9 µM | 97.3 µM | 69.7 µM | – | 39.3 µM | 16.2 µM | 19.8 µM | 24.6 µM | 9.44 µM | 18.8 µM | 15.8 µM | 6.03 µM | 19 µM
